Measurements: article PMC7265341, “Quantifying CDK inhibitor selectivity in live cells” (Nature Communications, 2020)
Where two headings read alike, the source gives them in different places.

Columns and labels:
CDK12/Cyclin K = CDK12/Cyclin K (Homo sapiens, UniProt Q9NYV4); assay: NanoBRET live-cell target engagement, CDK12-NanoLuc/Cyclin K in HEK-293; format: binding; details: CDK12/K, read-out: Inhibition at 10µM (%)
CDK10/Cyclin L2 = CDK10/Cyclin L2 (Homo sapiens, UniProt Q15131); assay: NanoBRET live-cell target engagement, CDK10-NanoLuc/Cyclin L2 in HEK-293; details: read-out: Inhibition at 10µM (%), CDK10/L2
CDK17/Cyclin Y = CDK17/Cyclin Y (Homo sapiens, UniProt Q00537); assay: NanoBRET live-cell target engagement, CDK17-NanoLuc/Cyclin Y in HEK-293; format: binding; details: CDK17/Y, read-out: Inhibition at 10µM (%)
CDK15/Cyclin Y = CDK15/Cyclin Y (Homo sapiens, UniProt Q96Q40); assay: NanoBRET live-cell target engagement, NanoLuc-CDK15/Cyclin Y in HEK-293; format: binding
CDK11A/Cyclin L2 = target: T1, CDK11A/Cyclin L2 (Homo sapiens, UniProt Q9UQ88); assay: NanoBRET live-cell target engagement, CDK11A-NanoLuc/Cyclin L2 in HEK-293; format: binding; details: CDK11a/L2, read-out: Inhibition at 10µM (%)
T1 sequence (Q9UQ88 1-783): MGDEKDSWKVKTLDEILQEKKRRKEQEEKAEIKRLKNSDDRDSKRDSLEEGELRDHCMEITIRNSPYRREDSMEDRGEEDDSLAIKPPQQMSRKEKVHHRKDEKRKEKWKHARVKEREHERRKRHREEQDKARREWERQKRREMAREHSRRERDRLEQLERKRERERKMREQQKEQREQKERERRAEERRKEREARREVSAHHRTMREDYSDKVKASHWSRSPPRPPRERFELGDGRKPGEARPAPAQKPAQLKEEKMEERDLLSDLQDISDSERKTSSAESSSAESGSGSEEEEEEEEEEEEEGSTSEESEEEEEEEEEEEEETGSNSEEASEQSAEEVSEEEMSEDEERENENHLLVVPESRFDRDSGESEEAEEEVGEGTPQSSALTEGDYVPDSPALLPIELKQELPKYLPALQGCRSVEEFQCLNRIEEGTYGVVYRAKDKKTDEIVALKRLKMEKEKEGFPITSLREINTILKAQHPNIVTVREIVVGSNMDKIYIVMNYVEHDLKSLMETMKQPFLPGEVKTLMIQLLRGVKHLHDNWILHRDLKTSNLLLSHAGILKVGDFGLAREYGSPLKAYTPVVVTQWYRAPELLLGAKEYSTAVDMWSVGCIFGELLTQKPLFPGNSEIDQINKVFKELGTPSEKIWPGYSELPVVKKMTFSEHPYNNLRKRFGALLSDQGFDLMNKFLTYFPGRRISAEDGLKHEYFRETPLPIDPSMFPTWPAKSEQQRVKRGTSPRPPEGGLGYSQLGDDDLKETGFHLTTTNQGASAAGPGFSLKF

CDK8/Cyclin C = CDK8/Cyclin C (Homo sapiens, UniProt P49336); assay: NanoBRET live-cell target engagement, NanoLuc-CDK8/Cyclin C in HEK-293; format: binding; details: CDK8/C, read-out: Inhibition at 10µM (%)
CDK19/Cyclin C = CDK19/Cyclin C (Homo sapiens, UniProt Q9BWU1); assay: NanoBRET live-cell target engagement, NanoLuc-CDK19/Cyclin C in HEK-293; details: read-out: Inhibition at 10µM (%), CDK19/C
CDK20/Cyclin H = CDK20/Cyclin H (Homo sapiens, UniProt Q8IZL9); assay: NanoBRET live-cell target engagement, NanoLuc-CDK20/Cyclin H in HEK-293; format: binding; details: read-out: Inhibition at 10µM (%), CDK20/H
CDK13/Cyclin K = CDK13/Cyclin K (Homo sapiens, UniProt Q14004); assay: NanoBRET live-cell target engagement, CDK13-NanoLuc/Cyclin K in HEK-293; format: binding; details: CDK13/K, read-out: Inhibition at 10µM (%)
all 21 human CDKs = assay: Live-cell selectivity profile across all 21 CDK/cyclin complexes in HEK-293; format: binding; details: remaining CDK family, live HEK-293; read-out: Collateral CDK (potency)
CDK11B/Cyclin L2 = CDK11B/Cyclin L2 (Homo sapiens, UniProt P21127); assay: NanoBRET live-cell target engagement, CDK11B-NanoLuc/Cyclin L2 in HEK-293; format: binding; details: CDK11b/L2, read-out: Inhibition at 10µM (%)
CDK14/Cyclin Y = CDK14/Cyclin Y (Homo sapiens, UniProt O94921); assay: NanoBRET live-cell target engagement, CDK14-NanoLuc/Cyclin Y in HEK-293; format: binding; details: CDK14/Y, read-out: Inhibition at 10µM (%)
CDK18/Cyclin Y = CDK18/Cyclin Y (Homo sapiens, UniProt Q07002); assay: NanoBRET live-cell target engagement, CDK18-NanoLuc/Cyclin Y in HEK-293; format: binding; details: CDK18/Y, read-out: Inhibition at 10µM (%)
CDK16/Cyclin Y = CDK16/Cyclin Y (Homo sapiens, UniProt Q00536); assay: NanoBRET live-cell target engagement, CDK16-NanoLuc/Cyclin Y in HEK-293; format: binding; details: CDK16/Y, read-out: Inhibition at 10µM (%)
CDK6/Cyclin D1 = CDK6/Cyclin D1 (Homo sapiens, UniProt Q00534); assay: NanoBRET live-cell target engagement, NanoLuc-CDK6/Cyclin D1 in HEK-293; format: binding; details: read-out: Inhibition at 10µM (%), CDK6/D1

Chain of CDK14/Cyclin Y (O94921 whole entry): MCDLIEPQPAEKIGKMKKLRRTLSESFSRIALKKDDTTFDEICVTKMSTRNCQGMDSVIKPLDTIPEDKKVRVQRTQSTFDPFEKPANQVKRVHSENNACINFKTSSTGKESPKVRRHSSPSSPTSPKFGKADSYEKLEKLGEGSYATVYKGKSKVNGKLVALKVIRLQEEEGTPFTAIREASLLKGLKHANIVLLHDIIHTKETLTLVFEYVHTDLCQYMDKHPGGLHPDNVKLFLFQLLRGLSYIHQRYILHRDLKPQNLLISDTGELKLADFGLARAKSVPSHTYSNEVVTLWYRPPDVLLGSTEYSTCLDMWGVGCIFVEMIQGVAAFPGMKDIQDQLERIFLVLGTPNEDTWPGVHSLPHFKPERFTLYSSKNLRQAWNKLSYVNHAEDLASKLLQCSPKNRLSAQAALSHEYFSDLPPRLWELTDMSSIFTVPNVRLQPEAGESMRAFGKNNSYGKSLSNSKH
Chain of CDK14/Cyclin Y (Q8ND76 whole entry partner): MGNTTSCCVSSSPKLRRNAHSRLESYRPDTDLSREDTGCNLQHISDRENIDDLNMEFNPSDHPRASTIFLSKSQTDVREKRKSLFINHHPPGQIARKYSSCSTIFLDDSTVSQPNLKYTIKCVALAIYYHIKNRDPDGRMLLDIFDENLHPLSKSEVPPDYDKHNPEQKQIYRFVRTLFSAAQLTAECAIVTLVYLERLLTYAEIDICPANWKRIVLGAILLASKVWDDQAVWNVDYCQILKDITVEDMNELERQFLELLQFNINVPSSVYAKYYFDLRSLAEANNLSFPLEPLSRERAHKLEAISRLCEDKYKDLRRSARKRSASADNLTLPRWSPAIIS
Chain of CDK17/Cyclin Y (Q00537 whole entry): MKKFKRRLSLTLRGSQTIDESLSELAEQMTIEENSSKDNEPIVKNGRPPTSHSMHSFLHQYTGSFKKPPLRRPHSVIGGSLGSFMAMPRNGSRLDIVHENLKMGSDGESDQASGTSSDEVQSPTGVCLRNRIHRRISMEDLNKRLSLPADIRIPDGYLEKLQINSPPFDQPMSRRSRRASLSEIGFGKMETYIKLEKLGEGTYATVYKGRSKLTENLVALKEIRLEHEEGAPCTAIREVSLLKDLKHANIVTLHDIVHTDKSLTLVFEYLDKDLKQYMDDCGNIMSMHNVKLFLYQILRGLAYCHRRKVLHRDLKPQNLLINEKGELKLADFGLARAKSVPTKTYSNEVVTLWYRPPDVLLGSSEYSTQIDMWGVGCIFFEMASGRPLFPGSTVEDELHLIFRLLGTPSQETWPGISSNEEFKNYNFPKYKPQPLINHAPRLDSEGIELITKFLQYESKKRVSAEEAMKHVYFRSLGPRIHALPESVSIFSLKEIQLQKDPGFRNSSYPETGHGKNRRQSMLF
Chain of CDK17/Cyclin Y (Q8ND76 whole entry partner): as the sequence (Q8ND76 whole entry partner) above
Chain of CDK19/Cyclin C (Q9BWU1 whole entry): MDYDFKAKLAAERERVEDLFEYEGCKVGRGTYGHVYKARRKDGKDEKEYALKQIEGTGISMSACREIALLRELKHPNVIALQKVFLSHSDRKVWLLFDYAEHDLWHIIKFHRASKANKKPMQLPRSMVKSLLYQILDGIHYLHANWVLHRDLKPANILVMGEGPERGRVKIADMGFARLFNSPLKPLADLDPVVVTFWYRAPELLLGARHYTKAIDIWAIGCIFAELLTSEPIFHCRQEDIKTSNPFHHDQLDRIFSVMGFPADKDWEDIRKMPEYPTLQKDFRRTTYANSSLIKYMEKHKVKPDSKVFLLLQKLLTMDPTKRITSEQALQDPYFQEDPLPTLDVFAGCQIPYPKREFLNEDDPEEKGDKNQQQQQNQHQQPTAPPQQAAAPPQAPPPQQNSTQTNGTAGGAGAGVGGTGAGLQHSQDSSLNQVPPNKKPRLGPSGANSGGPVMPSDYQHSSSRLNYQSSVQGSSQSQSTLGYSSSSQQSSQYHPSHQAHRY
Chain of CDK19/Cyclin C (P24863 whole entry partner): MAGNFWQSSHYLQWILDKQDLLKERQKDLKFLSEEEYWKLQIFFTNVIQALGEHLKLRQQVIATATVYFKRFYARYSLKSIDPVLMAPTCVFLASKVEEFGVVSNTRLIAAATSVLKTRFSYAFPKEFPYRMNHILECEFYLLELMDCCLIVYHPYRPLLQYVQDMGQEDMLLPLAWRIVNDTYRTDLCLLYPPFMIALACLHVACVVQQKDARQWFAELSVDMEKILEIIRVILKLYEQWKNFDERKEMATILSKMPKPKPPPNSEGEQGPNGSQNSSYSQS
Chain of CDK10/Cyclin L2 (Q15131 whole entry): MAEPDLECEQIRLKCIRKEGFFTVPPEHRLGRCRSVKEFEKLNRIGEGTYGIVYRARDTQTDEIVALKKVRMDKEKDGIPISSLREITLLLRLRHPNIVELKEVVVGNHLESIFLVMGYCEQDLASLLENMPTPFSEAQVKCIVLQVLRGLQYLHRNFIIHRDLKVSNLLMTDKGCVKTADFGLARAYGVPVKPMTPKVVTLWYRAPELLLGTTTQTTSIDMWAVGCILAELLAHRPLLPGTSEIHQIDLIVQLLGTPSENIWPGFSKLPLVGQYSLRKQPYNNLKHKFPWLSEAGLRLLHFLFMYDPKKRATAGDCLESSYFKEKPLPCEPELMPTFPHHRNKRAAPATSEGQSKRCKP
Chain of CDK12/Cyclin K (Q9NYV4 1-1481 isoform Q9NYV4-2): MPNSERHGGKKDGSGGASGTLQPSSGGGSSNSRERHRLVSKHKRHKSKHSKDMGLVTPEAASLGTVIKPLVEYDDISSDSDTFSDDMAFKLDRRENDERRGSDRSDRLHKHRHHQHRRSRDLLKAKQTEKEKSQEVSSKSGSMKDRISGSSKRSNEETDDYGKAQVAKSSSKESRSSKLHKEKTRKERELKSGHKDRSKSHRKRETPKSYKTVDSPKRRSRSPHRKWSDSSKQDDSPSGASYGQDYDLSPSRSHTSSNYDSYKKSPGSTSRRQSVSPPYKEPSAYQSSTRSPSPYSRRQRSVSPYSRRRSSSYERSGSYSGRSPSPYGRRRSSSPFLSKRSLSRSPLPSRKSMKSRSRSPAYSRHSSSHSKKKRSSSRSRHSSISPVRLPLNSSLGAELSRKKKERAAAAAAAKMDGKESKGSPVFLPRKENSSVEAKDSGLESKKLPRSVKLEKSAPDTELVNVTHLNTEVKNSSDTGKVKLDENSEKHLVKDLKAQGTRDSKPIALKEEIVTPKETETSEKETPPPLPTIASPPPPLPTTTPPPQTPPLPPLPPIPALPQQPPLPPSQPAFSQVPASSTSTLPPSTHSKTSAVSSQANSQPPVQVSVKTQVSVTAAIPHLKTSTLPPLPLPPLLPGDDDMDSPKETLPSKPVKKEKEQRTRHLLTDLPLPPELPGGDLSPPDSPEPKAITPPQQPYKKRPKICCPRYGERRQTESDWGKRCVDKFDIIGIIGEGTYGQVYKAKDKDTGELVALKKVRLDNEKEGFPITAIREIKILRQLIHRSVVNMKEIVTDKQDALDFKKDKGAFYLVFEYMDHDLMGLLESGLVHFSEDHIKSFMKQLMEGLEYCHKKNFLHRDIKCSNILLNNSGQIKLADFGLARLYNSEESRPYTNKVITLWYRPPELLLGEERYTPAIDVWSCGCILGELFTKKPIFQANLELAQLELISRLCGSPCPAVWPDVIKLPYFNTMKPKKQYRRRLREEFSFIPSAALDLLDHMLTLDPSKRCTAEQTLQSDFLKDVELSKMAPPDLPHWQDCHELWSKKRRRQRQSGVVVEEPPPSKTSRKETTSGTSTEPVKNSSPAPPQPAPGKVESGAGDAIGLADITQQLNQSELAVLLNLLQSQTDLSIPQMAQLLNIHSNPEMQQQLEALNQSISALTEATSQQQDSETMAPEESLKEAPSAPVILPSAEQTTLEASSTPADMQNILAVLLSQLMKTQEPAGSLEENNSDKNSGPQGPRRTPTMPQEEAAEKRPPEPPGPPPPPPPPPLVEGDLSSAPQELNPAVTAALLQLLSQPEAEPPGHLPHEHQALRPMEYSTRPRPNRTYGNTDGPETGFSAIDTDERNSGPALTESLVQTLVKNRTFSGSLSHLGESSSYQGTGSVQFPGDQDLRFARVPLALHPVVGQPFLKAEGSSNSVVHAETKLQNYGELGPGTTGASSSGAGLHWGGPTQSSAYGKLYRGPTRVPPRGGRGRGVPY
Chain of CDK12/Cyclin K (O75909 whole entry partner): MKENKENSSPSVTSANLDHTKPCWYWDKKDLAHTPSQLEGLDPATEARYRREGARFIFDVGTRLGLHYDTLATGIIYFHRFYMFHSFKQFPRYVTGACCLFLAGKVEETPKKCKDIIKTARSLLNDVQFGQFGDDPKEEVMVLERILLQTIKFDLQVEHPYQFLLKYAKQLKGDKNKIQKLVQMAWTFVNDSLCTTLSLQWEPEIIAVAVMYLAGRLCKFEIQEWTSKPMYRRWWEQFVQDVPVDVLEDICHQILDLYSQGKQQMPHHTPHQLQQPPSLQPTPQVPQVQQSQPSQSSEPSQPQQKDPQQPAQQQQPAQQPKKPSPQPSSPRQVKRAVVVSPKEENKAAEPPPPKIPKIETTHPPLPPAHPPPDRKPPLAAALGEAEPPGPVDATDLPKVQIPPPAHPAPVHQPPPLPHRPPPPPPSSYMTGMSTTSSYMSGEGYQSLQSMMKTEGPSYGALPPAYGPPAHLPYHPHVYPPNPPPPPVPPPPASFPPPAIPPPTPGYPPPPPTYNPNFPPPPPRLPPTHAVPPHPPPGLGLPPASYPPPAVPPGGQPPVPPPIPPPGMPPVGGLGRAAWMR

NS(=O)(=O)c1ccc(Nc2nc(OCC3CCCCC3)c3nc[nH]c3n2)cc1 [NU6102]
inhibition at 10 µM (CDK12/Cyclin K; average): 3.2%
inhibition at 10 µM (CDK12/Cyclin K; experiment 1): 8.2%
inhibition at 10 µM (CDK12/Cyclin K; experiment 2): -1.8%
inhibition at 10 µM (CDK10/Cyclin L2; average): 64%
inhibition at 10 µM (CDK10/Cyclin L2; experiment 1): 47.6%
inhibition at 10 µM (CDK10/Cyclin L2; experiment 2): 80.4%
inhibition at 10 µM (CDK17/Cyclin Y; average): 44.7%
inhibition at 10 µM (CDK17/Cyclin Y; experiment 1): 40.2%
inhibition at 10 µM (CDK17/Cyclin Y; experiment 2): 49.2%
inhibition at 10 µM (CDK15/Cyclin Y; CDK15/Y, average, read-out: Inhibition at 10µM (%)): 28.3%
inhibition at 10 µM (CDK15/Cyclin Y; CDK15/Y, experiment 2, read-out: Inhibition at 10µM (%)): 10.5%
inhibition at 10 µM (CDK15/Cyclin Y; read-out: Inhibition at 10µM (%), CDK15/Y, experiment 1): 46.2%
inhibition at 10 µM (CDK11A/Cyclin L2; average): 14%
inhibition at 10 µM (CDK11A/Cyclin L2; experiment 1): 10.4%
inhibition at 10 µM (CDK11A/Cyclin L2; experiment 2): 17.6%
inhibition at 10 µM (CDK8/Cyclin C; average): 11.3%
inhibition at 10 µM (CDK8/Cyclin C; experiment 1): 17.2%
inhibition at 10 µM (CDK8/Cyclin C; experiment 2): 5.4%
inhibition at 10 µM (CDK19/Cyclin C; average): 13%
inhibition at 10 µM (CDK19/Cyclin C; experiment 1): 21%
inhibition at 10 µM (CDK19/Cyclin C; experiment 2): 4.9%
inhibition at 10 µM (CDK20/Cyclin H; experiment 1): 59%
inhibition at 10 µM (CDK20/Cyclin H; experiment 2): 76.6%
inhibition at 10 µM (CDK13/Cyclin K; average): 18.1%
inhibition at 10 µM (CDK13/Cyclin K; experiment 1): 10.3%
inhibition at 10 µM (CDK13/Cyclin K; experiment 2): 25.9%
IC50 (all 21 human CDKs): > 1 µM
inhibition at 10 µM (CDK11B/Cyclin L2; average): 27.3%
inhibition at 10 µM (CDK11B/Cyclin L2; experiment 1): 13.2%
inhibition at 10 µM (CDK11B/Cyclin L2; experiment 2): 41.4%
inhibition at 10 µM (CDK14/Cyclin Y; average): 13.8%
inhibition at 10 µM (CDK14/Cyclin Y; experiment 1): 9.9%
inhibition at 10 µM (CDK14/Cyclin Y; experiment 2): 17.7%
inhibition at 10 µM (CDK18/Cyclin Y; average): 30.2%
inhibition at 10 µM (CDK18/Cyclin Y; experiment 1): 20.4%
inhibition at 10 µM (CDK18/Cyclin Y; experiment 2): 40.1%
inhibition at 10 µM (CDK16/Cyclin Y; experiment 1): 66.5%
inhibition at 10 µM (CDK16/Cyclin Y; experiment 2): 85.2%
inhibition at 10 µM (CDK6/Cyclin D1; average): 82.2%
inhibition at 10 µM (CDK6/Cyclin D1; experiment 1): 70.6%
inhibition at 10 µM (CDK6/Cyclin D1; experiment 2): 93.7%
